In patent US20050214385A1, “Chromium/biotin treatment of dyslipidemia and diet-induced post prandial hyperglycemia” (priority 2001, published 2005):
Values joined by “and” are separate entries in the source; they are usually repeats but may differ in a detail not shown here. Equal values may be shown once. Read-outs that look alike come from different tables or passages of the source.

Tests used:
[1] = rats, oral CrCl3 with NSAID; cited from earlier work
[2] = test system: human skeletal muscle culture (HSMC); test: Glucose uptake in human skeletal muscle culture; format: cell-based; conditions: FIG. 2
[3] = test system: glycogen synthetase (GS) mRNA; test: Glycogen synthetase (GS) mRNA expression in HSMC; format: cell-based, human; conditions: CrPic 10 ng/ml, biotin 10 pm, FIG. 4B
Method: To evaluate the cellular mechanism by […] biotin enhance glycogen synthesis, glycogen synthetase (“GS”) mRNA and glycogen synthesis were assessed. HSMC was incubated with CrPic at 10 ng/ml, biotin at 10 pm, and both CrPic and biotin. […] When evaluating GS mRNA levels, chromium increased gene expression of GS by 26%, biotin by 15%, and the combination by 33%. […] RNA Preparation: Total RNA from the skeletal muscle biopsy was isolated using guanium […], phenol-chloroform extraction, and alcohol precipitation. RNA sample was quantified by spectrophotometer. The absorption ratio (260:280 nm) was between 1.8 to 2.0 for all preparations and the integrity of the RNA was verified on agarose gel colored with ethidium bromide. For RT-PCR, fresh isolated total RNA was used. GS mRNA Level Analysis: GS mRNA levels were analyzed using one-step RT-PCR kits (Clontech Laboratories, Inc., Palo Alto, Calif.). GS first-strand CDNA synthesis was performed from 1 μh of total RNA with 1×[…] plus enzyme mix in 40 mM Tricine, 20 mM Kcl, 3 mM MgCl2, 3.75 ug/ml BSA, 0.2 mM deoxynucleoside triphosphates, 400 pmol of oligo(dt) primer, and 200 pm GS primers (Sense [NT], antisense [NT]) in a final volume of 50 μl. The reaction mixtures were subjected to incubations for 60 min. at 50° C. in the Eppendorf Master gradient cycler (Westbury, N.Y.). […] The band densities were evaluated (Alpha Imager 2000, San Leandro, Calif.). […]

JCR rat [4] = test: Intraperitoneal glucose tolerance test / glucose disposal in JCR rats; format: in vivo; conditions: for Glucose Disposal: individual rat, 12 weeks daily treatment via water; for Glucose Disposal, value per treatment group: mean per treatment, 12 weeks
Method: In order to test the effects of chromium and biotin, alone and in combination, on insulin sensitivity, a rodent model of “Syndrome X” was employed. Specifically, the JCR rat was utilized as it is a well-established model of obesity and insulin resistance.
After a baseline phase where accurate weights, body composition, and food intake were assessed, the animals were randomized to either control, CrPic alone, biotin alone, or CrPic/Biotin (See FIG. 5). Animals were weighed weekly and nutrients were given via daily water feeding at a specified dose/kg body weight. A 12-week period of daily treatment of animals was accomplished.
At specified time points during the study, glucose and insulin assessments were made. Specific assessments of carbohydrate metabolism were determined using an intraperitoneal glucose tolerance test and an insulin tolerance test. Animals were studied at 6 and 12 weeks with randomization. The specific metabolic testing was as follows:
Following baseline glucose and insulin measurements, 1.5 mg D50W per gram of body weight were given intraperitoneally. Tailsticks were initiated at 30, 60, 90, and 120 minutes following administration of glucose. The areas under curve for insulin and glucose were assessed. Eight animals in each group at 12 weeks were studied. Table 1 details the amount of glucose disposal for animals treated with CrPic and/or biotin at various dosages. Note, “L” represents the lean control; “O-contr” are the obese control rats; “LB” connotes low biotin treatments; “HB” represents high biotin treatments; “LC” and “HC” represent low and high doses of chromium, respectively. FIG. 6 is a graphic representation of the results of the IPGTT studies. […]

JCR rat [5] = test: Lipid levels in JCR rats (chromium picolinate + biotin animal study); format: in vivo; design: Cholesterol / HDL-ch: unit not given here
Method: In order to test the effects of chromium and biotin, alone and in combination, on insulin sensitivity, a rodent model of “Syndrome X” was employed. Specifically, the JCR rat was utilized as it is a well-established model of obesity and insulin resistance. […] After a baseline phase where accurate weights, body composition, and food intake were assessed, the animals were randomized to either control, CrPic alone, biotin alone, or CrPic/Biotin (See FIG. 5). Animals were weighed weekly and nutrients were given via daily water feeding at a specified dose/kg body weight. A 12-week period of daily treatment of animals was accomplished. […] Specifically, CrPic versus control solutions were given in hyperinsulinemic, insulin-resistant, obese JCR rats. The study was initiated on animals at approximately 4 months of age, and animals were treated specifically for three months. […] 9). […] The improvement in insulin sensitivity was associated with a reduction in total. cholesterol levels compared to lean animals (See, e.g., Table 2, and FIGS. 10 & 11). The effect of the combination of chromium and biotin on lipid levels in the animal study is detailed in Table 2. Specifically, the effect of chromium and biotin on cholesterol levels, high density lipid cholesterol (HDL-ch) levels, and triglyceride levels are recorded in Table 2.

JCR rat [6] = test: Insulin tolerance test in obese JCR rats; format: in vivo; conditions: FIG. 9
Method: (§1) At specified time points during the study, glucose and insulin assessments were made. Specific assessments of carbohydrate metabolism were determined using an intraperitoneal glucose tolerance test and an insulin tolerance test. Animals were studied at 6 and 12 weeks with randomization. The specific metabolic testing was as follows: Following baseline glucose assessment, insulin (5 units per kg body weight) was given intravenously. Repeat glucose assessments occurred at 5, 15, and 30 minute intervals following insulin administration. The rate of glucose disappearance was measured. Again, eight animals in each group at 12 weeks were studied. […] Specifically, CrPic versus control solutions were given in hyperinsulinemic, insulin-resistant, obese JCR rats. The study was initiated on animals at approximately 4 months of age, and animals were treated specifically for three months. […] 9). […] The improvement in insulin sensitivity was associated with a reduction in total. cholesterol levels compared to lean animals (See, e.g., Table 2, and FIGS. 10 & 11). The effect of the combination of chromium and biotin on lipid levels in the animal study is detailed in Table 2. Specifically, the effect of chromium and biotin on cholesterol levels, high density lipid cholesterol (HDL-ch) levels, and triglyceride levels are recorded in Table 2.

JCR rat [7] = test: Fasting plasma insulin in obese JCR rats; format: in vivo; conditions: treated three months, end of study, FIG. 7
Method: as §1, with “randomization.” for “randomization. The specific metabolic testing was as follows: Following baseline glucose assessment, insulin (5 units per kg body weight) was given intravenously. Repeat glucose assessments occurred at 5, 15, and 30 minute intervals following insulin administration. The rate of glucose disappearance was measured. Again, eight animals in each group at 12 weeks were studied.”

[8] = test system: diabetic and obese pre-diabetic subjects; conditions: cited from earlier work
JCR:LA-corpulent rat = conditions: obese, hyperinsulinemic, insulin resistant rodent model; cited from earlier work
[9] = oral biotin intakes of up to 200 mg daily; cited from earlier work
diabetic KK mice = conditions: high-dose oral or parenteral; cited from earlier work
[10] = test system: streptozotocin-diabetic rats; Otsuka Long-Evans Tokushima Fatty rats; conditions: high-dose oral or parenteral, cited from earlier work
[11] = test system: Type I and type 2 diabetics; conditions: cited from earlier work
[12] = Month 0, listed as High Chromium
[13] = Month 0, listed as Low Chromium
[14] = Month 1, listed as High Chromium
[15] = Month 1, listed as Low Chromium
[16] = Month 2, listed as High Chromium
[17] = Month 2, listed as Low Chromium
[18] = Month 3, listed as High Chromium
[19] = Month 3, listed as Low Chromium

## CC(=O)Oc1ccccc1C(=O)O [aspirin]
[1]
  Chromium absorption: facilitated

## chromium picolinate [CrPic]
[2]
  glucose uptake: enhances glucose uptake
[3]
  increase of gene expression of GS (GS mRNA levels): 26%
JCR rat [4]; listed as HC
  Glucose Disposal: 2.928 mg/dL/min and 3.25 mg/dL/min and 3.224 mg/dL/min and 3.011 mg/dL/min and 2.821 mg/dL/min
JCR rat [4]; listed as LC
  Glucose Disposal: 2.334 mg/dL/min and 2.109 mg/dL/min and 2.066 mg/dL/min
JCR rat [4]
  Glucose Disposal, value per treatment group: 2.928 mg/dL/min
JCR rat [4]; obese JCR rats, FIG. 8A
  glucose response to intraperitoneal glucose tolerance test: significantly improved glucose response
JCR rat [4]; obese rat, FIG. 8B
  insulin response to intraperitoneal glucose tolerance test: significantly lowered insulin response
JCR rat [5]; [12]
  Cholesterol: 110
  HDL-ch: 43.1
  Triglyceride: 302 mg/dL
JCR rat [5]; [13]
  Cholesterol: 109
  HDL-ch: 45.9
  Triglyceride: 319 mg/dL
JCR rat [5]; [14]
  Cholesterol: 112
  HDL-ch: 43.2
  Triglyceride: 283 mg/dL
JCR rat [5]; [15]
  Cholesterol: 93
  HDL-ch: 38.6
  Triglyceride: 267 mg/dL
JCR rat [5]; [16]
  Cholesterol: 120
  HDL-ch: 51.5
  Triglyceride: 221 mg/dL
JCR rat [5]; [17]
  Cholesterol: 130
  HDL-ch: 43.4
  Triglyceride: 256 mg/dL
JCR rat [5]; [18]
  Cholesterol: 122
  HDL-ch: 48.1
  Triglyceride: 174 mg/dL
JCR rat [5]; [19]
  Cholesterol: 137
  HDL-ch: 45.9
  Triglyceride: 242 mg/dL
JCR rat [5]; obese JCR rats, FIGS. 10 & 11
  total cholesterol levels: reduction
JCR rat [6]
  Insulin sensitivity, insulin tolerance test: significantly improved
JCR rat [7]
  fasting plasma insulin: significantly lower fasting plasma insulin
[8]; Chinese diabetics
  glucose levels: significantly lowered
  insulin levels: significantly lowered
[8]; obese, pre-diabetic subjects, 1000 μg per day
  insulin sensitivity: enhance insulin sensitivity
JCR:LA-corpulent rat
  insulin sensitivity: very robust effect on improving
  lipid profiles: very robust effect on improving

## O=C(O)CCCC[C@@H]1SC[C@@H]2NC(=O)N[C@@H]21 [biotin]
[2]
  glucose uptake: chromium alone enhances glucose uptake in contrast to biotin alone
[3]
  increase of gene expression of GS (GS mRNA levels): 15%
JCR rat [4]; listed as HB
  Glucose Disposal: 1.92 mg/dL/min and 2.329 mg/dL/min and 1.879 mg/dL/min and 1.772 mg/dL/min and 1.993 mg/dL/min
JCR rat [4]; listed as LB
  Glucose Disposal: 2.21 mg/dL/min and 2.392 mg/dL/min and 1.876 mg/dL/min and 1.768 mg/dL/min and 1.875 mg/dL/min
JCR rat [4]
  Glucose Disposal, value per treatment group: 2.0615 mg/dL/min
JCR rat [5]; Month 0, listed as High Biotin
  Cholesterol: 106
  HDL-ch: 43.6
  Triglyceride: 289 mg/dL
JCR rat [5]; Month 0, listed as Low Biotin
  Cholesterol: 111
  HDL-ch: 47.8
  Triglyceride: 317 mg/dL
JCR rat [5]; Month 1, listed as High Biotin
  Cholesterol: 111
  HDL-ch: 42
  Triglyceride: 292 mg/dL
JCR rat [5]; Month 1, listed as Low Biotin
  Cholesterol: 117
  HDL-ch: 46.5
  Triglyceride: 331 mg/dL
JCR rat [5]; Month 2, listed as High Biotin
  Cholesterol: 130
  HDL-ch: 46.8
  Triglyceride: 294 mg/dL
JCR rat [5]; Month 2, listed as Low Biotin
  Cholesterol: 122
  HDL-ch: 45.8
  Triglyceride: 272 mg/dL
JCR rat [5]; Month 3, listed as High Biotin
  Cholesterol: 144
  HDL-ch: 46.9
  Triglyceride: 301 mg/dL
JCR rat [5]; Month 3, listed as Low Biotin
  Cholesterol: 118
  HDL-ch: 47.3
  Triglyceride: 229 mg/dL
[9]
  side effects or toxicities: no side effects or toxicities
Diabetic KK mice
  oral glucose tolerance: improve oral glucose tolerance
[10]; pre-diabetic Otsuka Long-Evans Tokushima Fatty rats
  oral glucose tolerance: improve oral glucose tolerance
[10]; rats made diabetic with streptozotocin
  oral glucose tolerance: improve oral glucose tolerance
[11]; Type I diabetics, insulin temporarily discontinued, 16 mg daily oral
  fasting plasma glucose levels: lowered fasting plasma glucose levels
[11]; poorly-controlled type 2 diabetics, 3 mg three times per day
  pancreatic beta cell function: improved
